For 11 compounds, GI50 and TGI results are on record in PubChem BioAssay (NCI).

Some test systems named below: COLO 205 colon; NCI-H226 lung; T-47D breast; HCT-15 colon; IGROV1 ovarian; HOP-62 NSCLC; SNB-19 CNS; SW-620 colon; NCI-H522 lung; A498 renal.
Holding throughout (experiment): NCI-60 cell line screen, 48 h

Where “and” joins values, the source holds several entries; their conditions need not be identical. Identical values can stand only once.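 Test compounds were applied to cells in 96-well plates for 48 hours at 5 doses. Abbreviation: GI50, concentration required for 50% inhibition of growth. The concentration for full growth arrest is given as TGI.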

As to `CCc1ccc(C2=C/C(=C/c3ccc(Cl)cc3)C(=O)N2CCc2ccc(S(N)(=O)=O)cc2)cc1`, the GI50 was 1.78 µM in the experiment on COLO 205 colon; 2.37 µM with NCI-H226 lung; 3.09 µM in the experiment with T-47D breast; 2.98 µM in the experiment on HCT-15 colon; 3.26 µM with IGROV1 ovarian; 2.42 µM in the experiment on HOP-62 NSCLC. In addition, the GI50 in the experiment on SNB-19 CNS is 2.98 µM; in the experiment with SW-620 colon, 3 µM; in the experiment on NCI-H522 lung, 2.55 µM. The TGI with COLO 205 colon came to 3.54 µM; in the experiment with NCI-H226 lung it was 6.34 µM; with T-47D breast, 11.9 µM; in the experiment with HCT-15 colon, 12.9 µM; in the experiment with IGROV1 ovarian, 12.7 µM; with HOP-62 NSCLC it was 5.86 µM. The TGI in the experiment on SNB-19 CNS was found to be 13.7 µM; in the experiment on SW-620 colon, 11.8 µM; in the experiment with NCI-H522 lung, 7.39 µM.
As for `CN1CCC23c4c5ccc(O)c4OC2C(=NN=C2CCC4(O)C6Cc7ccc(O)c8c7C4(CCN6C)C2O8)CCC3(O)C1C5` (stereo unspecified), the TGI in the experiment on COLO 205 colon, with NCI-H226 lung, in the experiment with HCT-15 colon, in the experiment with IGROV1 ovarian, in the experiment on HOP-62 NSCLC and in the experiment with SNB-19 CNS was greater than 100 µM in each case. Besides, the TGI in the experiment on A498 renal, in the experiment with SW-620 colon and with NCI-H522 lung was greater than 100 µM throughout.
Consider `C[C@]12CCC[C@H](OC=O)C1(O)C[C@H](C(=O)O)CC2` (stereo partly specified), for which the TGI in the experiment with COLO 205 colon, in the experiment on NCI-H226 lung, in the experiment with HCT-15 colon, with IGROV1 ovarian, in the experiment on HOP-62 NSCLC and in the experiment with SNB-19 CNS was greater than 100 µM in each case. In addition, the TGI in the experiment on A498 renal, in the experiment with SW-620 colon and in the experiment on NCI-H522 lung was greater than 100 µM in each case.
Turning to `CS(=O)(=O)c1ccc(N/N=C/c2c(-c3ccc(S(C)(=O)=O)cc3)[nH]c3ccc(F)cc23)cc1`, the GI50 in the experiment with COLO 205 colon was 2.86 µM; in the experiment on T-47D breast, 1.41 µM; in the experiment on HCT-15 colon, 18.1 µM; with IGROV1 ovarian, 2.78 µM; in the experiment on HOP-62 NSCLC it was 2.17 µM; in the experiment on SNB-19 CNS it was 2.36 µM. Besides, the GI50 with A498 renal was 1.39 µM; in the experiment on SW-620 colon, 4.57 µM; in the experiment on NCI-H522 lung, 2.08 µM. Besides, the TGI in the experiment with COLO 205 colon, in the experiment on T-47D breast, in the experiment on HCT-15 colon, in the experiment with IGROV1 ovarian, in the experiment on HOP-62 NSCLC and with SNB-19 CNS was greater than 50 µM throughout. Further, the TGI in the experiment on A498 renal was 4.88 µM; in the experiment on SW-620 colon it was greater than 50 µM; with NCI-H522 lung, greater than 50 µM.
`c1cncc(C2c3[nH]c4ccccc4c3CCN2CCCN2CCCCC2)c1` (stereo unspecified): the TGI with COLO 205 colon, in the experiment on NCI-H226 lung, in the experiment with HCT-15 colon, in the experiment with IGROV1 ovarian, in the experiment with HOP-62 NSCLC and with SNB-19 CNS was greater than 100 µM throughout. The TGI in the experiment on A498 renal, in the experiment with SW-620 colon and in the experiment with NCI-H522 lung was greater than 100 µM throughout.
`COc1ccc2cc(C(=O)c3ccccc3C(=O)O)ccc2c1`: the TGI with COLO 205 colon, with NCI-H226 lung, with HCT-15 colon, in the experiment on IGROV1 ovarian, in the experiment with HOP-62 NSCLC and in the experiment with SNB-19 CNS was greater than 100 µM each time. Besides, the TGI in the experiment with A498 renal, with SW-620 colon and in the experiment with NCI-H522 lung was greater than 100 µM throughout.
Consider `CCc1ccccc1NC(=O)/C(CC(=O)c1c(C)n([O-])c2ccccc2[n+]1=O)=N\NS(=O)(=O)c1ccc(C)cc1`, for which the TGI in the experiment on COLO 205 colon, in the experiment with NCI-H226 lung, with HCT-15 colon, with IGROV1 ovarian, in the experiment on HOP-62 NSCLC and with SNB-19 CNS was greater than 100 µM in each case. Moreover, the TGI in the experiment on A498 renal is greater than 100 µM; in the experiment on SW-620 colon it was greater than 100 µM; in the experiment on NCI-H522 lung it was 47.1 µM.
For the compound `CCCCCCCCCCCCCCCCC1=CC(=O)C=C(OC)C1=O`, the TGI in the experiment on COLO 205 colon, with NCI-H226 lung, in the experiment on HCT-15 colon, with IGROV1 ovarian, with HOP-62 NSCLC and in the experiment on SNB-19 CNS was greater than 100 µM in each case. Also, the TGI with A498 renal, with SW-620 colon and with NCI-H522 lung was greater than 100 µM each time.
In the case of `O=S(=O)(/C=C/C=C/S(=O)(=O)c1ccccc1)c1ccccc1`, the GI50 is 1.02 µM in the experiment with COLO 205 colon; 1.24 µM in the experiment on NCI-H226 lung; 0.189 µM in the experiment with HCT-15 colon; 1.39 µM in the experiment with IGROV1 ovarian; 8.81 µM with HOP-62 NSCLC; 0.316 µM with SW-620 colon. The GI50 with NCI-H522 lung is 0.196 µM. Moreover, the TGI in the experiment with COLO 205 colon was 2.77 µM and 2.71 µM; in the experiment on NCI-H226 lung it was 4.85 µM; with T-47D breast, 2.69 µM; with HCT-15 colon it was 2.7 µM and 0.795 µM; with IGROV1 ovarian, 3.57 µM; in the experiment on HOP-62 NSCLC it was 20.9 µM. The TGI is 31.2 µM in the experiment on SNB-19 CNS; 0.433 µM and 2.26 µM in the experiment on SW-620 colon; 0.728 µM and 0.601 µM in the experiment with NCI-H522 lung.
On to `CCCCCCCC[N+](C)(C)Cc1ccc(C[N+](C)(C)CCCCCCCC)cc1`, for which the TGI in the experiment with COLO 205 colon is 3.48 µM; in the experiment on NCI-H226 lung it was greater than 100 µM; in the experiment with HCT-15 colon, greater than 100 µM; in the experiment on IGROV1 ovarian, 65.1 µM; with HOP-62 NSCLC it was greater than 100 µM; with SNB-19 CNS, greater than 100 µM. For the same compound, the TGI in the experiment with A498 renal, in the experiment with SW-620 colon and with NCI-H522 lung was greater than 100 µM in each case.
As to `O=C1c2ccccc2C(=O)N1/N=C\c1ccc(Br)cc1`, the TGI in the experiment on COLO 205 colon, in the experiment with NCI-H226 lung, in the experiment on HCT-15 colon, with IGROV1 ovarian, in the experiment on HOP-62 NSCLC and with SNB-19 CNS was greater than 100 µM in each case. Also, the TGI in the experiment with A498 renal, in the experiment on SW-620 colon and in the experiment with NCI-H522 lung was greater than 100 µM each time. Also, the GI50 in the experiment with NCI-H226 lung, in the experiment with HCT-15 colon, with IGROV1 ovarian, in the experiment with HOP-62 NSCLC, in the experiment on SNB-19 CNS and in the experiment with A498 renal was greater than 100 µM in each case. In addition, in the experiment with SW-620 colon, the GI50 is greater than 100 µM.
